Data from patent US10004701B2, “Methods and compositions for treating infection” (UNIVERSITY OF ROCHESTER, priority 2012, dated 2018).
Where a name gives a salt, the structure may show the parent alone. Read-outs that look alike come from different tables or passages of the source.

How the values were obtained:
Assay in all cases: AK assay 384-well format, Prestwick library screening
[1] = test system: S. aureus strain USA300-0114; assay type: cell-based, Staphylococcus aureus; conditions: for fold induction at 50 µM: Staphylococcus aureus, USA300, 3 h
[2] = test system: A. baumannii strain 98-37-09; assay type: cell-based, Acinetobacter baumannii; conditions: for fold induction at 50 µM: Acinetobacter baumannii, 983709, 3 h
E. coli = assay type: cell-based, Escherichia coli; conditions: for fold induction at 50 µM: Escherichia coli, 3 h
K. pneumoniae = assay type: cell-based, Klebsiella pneumoniae; conditions: for fold induction at 50 µM: Klebsiella pneumoniae, 3 h
E. cloacae = assay type: cell-based, Enterobacter cloacae; conditions: for fold induction at 50 µM: Enterobacter cloacae, 3 h
E. faecium = assay type: cell-based, Enterococcus faecium; conditions: for fold induction at 50 µM: Enterococcus faecium, 3 h
P. aeruginosa = assay type: cell-based, Pseudomonas aeruginosa; conditions: for fold induction at 50 µM: Pseudomonas aeruginosa, 3 h
[3] = planktonic S. aureus, 50 μM final drug concentration, cutoff for positive-scoring molecules 3-fold increase, read-out: AK-based Prestwick Library Screening Results, S. aureus (increase in extracellular AK activity)
[4] = planktonic A. baumannii, 50 μM final drug concentration, cutoff for positive-scoring molecules 3-fold increase, read-out: AK-based Prestwick Library Screening Results, A. baumannii (increase in extracellular AK activity)
[5] = planktonic E. coli, 50 μM final drug concentration, cutoff for positive-scoring molecules 3-fold increase, read-out: AK-based Prestwick Library Screening Results, E. coli (increase in extracellular AK activity)
[6] = planktonic K. pneumoniae, 50 μM final drug concentration, cutoff for positive-scoring molecules 3-fold increase, read-out: AK-based Prestwick Library Screening Results, K. pneumoniae (increase in extracellular AK activity)
[7] = planktonic E. cloacae, 50 μM final drug concentration, cutoff for positive-scoring molecules 3-fold increase, read-out: AK-based Prestwick Library Screening Results, E. cloacae (increase in extracellular AK activity)
[8] = planktonic E. faecium, 50 μM final drug concentration, cutoff for positive-scoring molecules 3-fold increase, read-out: AK-based Prestwick Library Screening Results, E. faecium (increase in extracellular AK activity)
[9] = planktonic P. aeruginosa, 50 μM final drug concentration, cutoff for positive-scoring molecules 3-fold increase, read-out: AK-based Prestwick Library Screening Results, P. aeruginosa (increase in extracellular AK activity)
[10] = 50 μM final drug concentration, planktonic, cutoff for positive 3-fold increase
[11] = planktonic S. aureus, 50 μM final drug concentration, positive cutoff 3-fold increase, read-out: AK-based Prestwick library screening result, S. aureus (fold increase in extracellular AK activity)
[12] = planktonic A. baumannii, 50 μM final drug concentration, positive cutoff 3-fold increase, read-out: AK-based Prestwick library screening result, A. baumannii (fold increase in extracellular AK activity)
[13] = planktonic E. coli, 50 μM final drug concentration, positive cutoff 3-fold increase, read-out: AK-based Prestwick library screening result, E. coli (fold increase in extracellular AK activity)
[14] = planktonic K. pneumoniae, 50 μM final drug concentration, positive cutoff 3-fold increase, read-out: AK-based Prestwick library screening result, K. pneumoniae (fold increase in extracellular AK activity)
[15] = planktonic E. cloacae, 50 μM final drug concentration, positive cutoff 3-fold increase, read-out: AK-based Prestwick library screening result, E. cloacae (fold increase in extracellular AK activity)
[16] = planktonic E. faecium, 50 μM final drug concentration, positive cutoff 3-fold increase, read-out: AK-based Prestwick library screening result, E. faecium (fold increase in extracellular AK activity)
[17] = planktonic P. aeruginosa, 50 μM final drug concentration, positive cutoff 3-fold increase, read-out: AK-based Prestwick library screening result, P. aeruginosa (fold increase in extracellular AK activity)
[18] = planktonic S. aureus, 50 μM final drug concentration, […], read-out: AK-based Prestwick Library Screening Results, S. aureus (increase in extracellular AK activity)
[19] = planktonic A. baumannii, 50 μM final drug concentration, […], read-out: AK-based Prestwick Library Screening Results, A. baumannii (increase in extracellular AK activity)
[20] = planktonic E. coli, 50 μM final drug concentration, […], read-out: AK-based Prestwick Library Screening Results, E. coli (increase in extracellular AK activity)
[21] = planktonic K. pneumoniae, 50 μM final drug concentration, […], read-out: AK-based Prestwick Library Screening Results, K. pneumoniae (increase in extracellular AK activity)
[22] = planktonic E. cloacae, 50 μM final drug concentration, […], read-out: AK-based Prestwick Library Screening Results, E. cloacae (increase in extracellular AK activity)
[23] = planktonic E. faecium, 50 μM final drug concentration, […], read-out: AK-based Prestwick Library Screening Results, E. faecium (increase in extracellular AK activity)
[24] = planktonic P. aeruginosa, 50 μM final drug concentration, […], read-out: AK-based Prestwick Library Screening Results, P. aeruginosa (increase in extracellular AK activity)

For `COC(=O)Nc1nc2ccc(C(=O)c3cccs3)cc2[nH]1` [Nocodazole], the fold induction at 50 µM ([1]; 50 μM final drug concentration, 384-well format, cutoff for positive-scoring molecules 3-fold increase, read-out: AK-based Prestwick Library Screening Results, S. aureus (increase in extracellular AK activity)) was 0.6, the fold induction at 50 µM ([2]; 50 μM final drug concentration, 384-well format, cutoff for positive-scoring molecules 3-fold increase, read-out: AK-based Prestwick Library Screening Results, A. baumannii (increase in extracellular AK activity)) was 0.6 and the fold induction at 50 µM (E. coli; 50 μM final drug concentration, 384-well format, cutoff for positive-scoring molecules 3-fold increase, read-out: AK-based Prestwick Library Screening Results, E. coli (increase in extracellular AK activity)) was 0.6. The fold induction at 50 µM (K. pneumoniae; 50 μM final drug concentration, 384-well format, cutoff for positive-scoring molecules 3-fold increase, read-out: AK-based Prestwick Library Screening Results, K. pneumoniae (increase in extracellular AK activity)) was 0.5, the fold induction at 50 µM (E. cloacae; 50 μM final drug concentration, 384-well format, cutoff for positive-scoring molecules 3-fold increase, read-out: AK-based Prestwick Library Screening Results, E. cloacae (increase in extracellular AK activity)) was 0.7 and the fold induction at 50 µM (E. faecium; 50 μM final drug concentration, 384-well format, cutoff for positive-scoring molecules 3-fold increase, read-out: AK-based Prestwick Library Screening Results, E. faecium (increase in extracellular AK activity)) was 0.9. It also gave a fold induction at 50 µM (P. aeruginosa; 50 μM final drug concentration, 384-well format, cutoff for positive-scoring molecules 3-fold increase, read-out: AK-based Prestwick Library Screening Results, P. aeruginosa (increase in extracellular AK activity)) of 0.6.

With `CC(C)(O/N=C(\C(=O)N[C@@H]1C(=O)N2C(C(=O)[O-])=C(C[n+]3ccccc3)CS[C@H]12)c1csc(N)n1)C(=O)O` [Ceftazidime pentahydrate] the fold induction at 50 µM [1, 3] was 0.4, the fold induction at 50 µM [2, 4] was 0.5 and the fold induction at 50 µM (E. coli; [5]) was 11.5. For the same compound, the fold induction at 50 µM (K. pneumoniae; [6]) was 3.2, the fold induction at 50 µM (E. cloacae; [7]) was 12.9 and the fold induction at 50 µM (E. faecium; [8]) was 0.9. For the same compound, the fold induction at 50 µM (P. aeruginosa; [9]) was 7.8.

In the case of `CN1CCc2c(c3ccccc3n2Cc2ccccc2)C1.O=S(=O)(O)c1cccc2c(S(=O)(=O)O)cccc12` [Mebhydroline 1,5-naphtalenedisulfonate], the “AK-based Prestwick Library Screening Results, S. aureus (fold increase in extracellular AK activity)” value [1, 10] is reported as 0.9, the “AK-based Prestwick Library Screening Results, A. baumannii (fold increase in extracellular AK activity)” value [2, 10] is reported as 0.9 and the “AK-based Prestwick Library Screening Results, E. coli (fold increase in extracellular AK activity)” value (E. coli; [10]) is reported as 1.1. The “AK-based Prestwick Library Screening Results, K. pneumoniae (fold increase in extracellular AK activity)” value (K. pneumoniae; [10]) was 0.8, the “AK-based Prestwick Library Screening Results, E. cloacae (fold increase in extracellular AK activity)” value (E. cloacae; [10]) was 1.5 and the “AK-based Prestwick Library Screening Results, E. faecium (fold increase in extracellular AK activity)” value (E. faecium; [10]) was 1.0. The “AK-based Prestwick Library Screening Results, P. aeruginosa (fold increase in extracellular AK activity)” value (P. aeruginosa; [10]) was 1.1.

For `N=C(N)NC(=O)Cc1c(Cl)cccc1Cl` [Guanfacine hydrochloride], the fold induction at 50 µM [1, 3] was 0.6, the fold induction at 50 µM [2, 4] was 0.7 and the fold induction at 50 µM (E. coli; [5]) was 0.8. For the same compound, the fold induction at 50 µM (K. pneumoniae; [6]) was 0.5, the fold induction at 50 µM (E. cloacae; [7]) was 0.9 and the fold induction at 50 µM (E. faecium; [8]) was 1.1. For the same compound, the fold induction at 50 µM (P. aeruginosa; [9]) was 0.7.

Work on `COc1ccc2c(c1)C(=O)N(CCc1ccc(S(=O)(=O)NC(=O)NC3CCCCC3)cc1)C(=O)C2(C)C` [Gliquidone] yielded a fold induction at 50 µM [1, 11] of 0.5, a fold induction at 50 µM [2, 12] of 0.7 and a fold induction at 50 µM (E. coli; [13]) of 0.8. It also gave a fold induction at 50 µM (K. pneumoniae; [14]) of 0.7, a fold induction at 50 µM (E. cloacae; [15]) of 1.1 and a fold induction at 50 µM (E. faecium; [16]) of 0.9. The fold induction at 50 µM (P. aeruginosa; [17]) was 0.8.

`COc1ccc(CN2CCNCC2)c(OC)c1OC` [Trimetazidine dihydrochloride] was tested, and the fold induction at 50 µM ([1]; 50 μM final drug concentration, planktonic, cutoff for positive 3-fold increase, read-out: AK-based Prestwick Library Screening Results, S. aureus (fold increase in extracellular AK activity)) was 1.2, the fold induction at 50 µM ([2]; 50 μM final drug concentration, planktonic, cutoff for positive 3-fold increase, read-out: AK-based Prestwick Library Screening Results, A. baumannii (fold increase in extracellular AK activity)) was 1.2 and the fold induction at 50 µM (E. coli; 50 μM final drug concentration, planktonic, cutoff for positive 3-fold increase, read-out: AK-based Prestwick Library Screening Results, E. coli (fold increase in extracellular AK activity)) was 1.4. It also gave a fold induction at 50 µM (K. pneumoniae; 50 μM final drug concentration, planktonic, cutoff for positive 3-fold increase, read-out: AK-based Prestwick Library Screening Results, K. pneumoniae (fold increase in extracellular AK activity)) of 1.1, a fold induction at 50 µM (E. cloacae; 50 μM final drug concentration, planktonic, cutoff for positive 3-fold increase, read-out: AK-based Prestwick Library Screening Results, E. cloacae (fold increase in extracellular AK activity)) of 1.7 and a fold induction at 50 µM (E. faecium; 50 μM final drug concentration, planktonic, cutoff for positive 3-fold increase, read-out: AK-based Prestwick Library Screening Results, E. faecium (fold increase in extracellular AK activity)) of 1. It also gave a fold induction at 50 µM (P. aeruginosa; 50 μM final drug concentration, planktonic, cutoff for positive 3-fold increase, read-out: AK-based Prestwick Library Screening Results, P. aeruginosa (fold increase in extracellular AK activity)) of 1.1.

`COc1cc2c(c(OC)c1OC)-c1ccc(O)c(=O)cc1C(N)CC2` (stereo not shown) [Trimethylcolchicinic acid] gave a fold induction at 50 µM [1, 18] of 0.6, a fold induction at 50 µM [2, 19] of 1 and a fold induction at 50 µM (E. coli; [20]) of 0.8. The fold induction at 50 µM (K. pneumoniae; [21]) was 0.7, the fold induction at 50 µM (E. cloacae; [22]) was 0.8 and the fold induction at 50 µM (E. faecium; [23]) was 1.2. The fold induction at 50 µM (P. aeruginosa; [24]) was 0.7.

In the case of `O=c1c(O)c(-c2ccc(O)c(O)c2)oc2cc(O)cc(O)c12` [Quercetine dihydrate], the fold induction at 50 µM [1, 18] is reported as 0.1, the fold induction at 50 µM [2, 19] is reported as 0.4 and the fold induction at 50 µM (E. coli; [20]) is reported as 0.7. The fold induction at 50 µM (K. pneumoniae; [21]) was 0.6, the fold induction at 50 µM (E. cloacae; [22]) was 0.9 and the fold induction at 50 µM (E. faecium; [23]) was 0.8. The fold induction at 50 µM (P. aeruginosa; [24]) was 0.6.

In the case of `COCCCC/C(=N\OCCN)c1ccc(C(F)(F)F)cc1` [Fluvoxamine maleate], the fold induction at 50 µM [1, 11] is reported as 0.7, the fold induction at 50 µM [2, 12] is reported as 0.9 and the fold induction at 50 µM (E. coli; [13]) is reported as 0.9. The fold induction at 50 µM (K. pneumoniae; [14]) was 0.7, the fold induction at 50 µM (E. cloacae; [15]) was 1.1 and the fold induction at 50 µM (E. faecium; [16]) was 0.8. For the same compound, the fold induction at 50 µM (P. aeruginosa; [17]) was 0.8.

With `CC(=O)[C@H]1CC[C@H]2[C@@H]3CC[C@H]4C[C@H](O)CC[C@]4(C)[C@H]3C(=O)C[C@]12C` [Alfaxalone] the fold induction at 50 µM ([1]; read-out: AK-based Prestwick library screening result, S. aureus (fold increase in extracellular AK activity)) was 1.2, the fold induction at 50 µM ([2]; read-out: AK-based Prestwick library screening result, A. baumannii (fold increase in extracellular AK activity)) was 1 and the fold induction at 50 µM (E. coli; read-out: AK-based Prestwick library screening result, E. coli (fold increase in extracellular AK activity)) was 1.2. It also gave a fold induction at 50 µM (K. pneumoniae; read-out: AK-based Prestwick library screening result, K. pneumoniae (fold increase in extracellular AK activity)) of 1, a fold induction at 50 µM (E. cloacae; read-out: AK-based Prestwick library screening result, E. cloacae (fold increase in extracellular AK activity)) of 1.7 and a fold induction at 50 µM (E. faecium; read-out: AK-based Prestwick library screening result, E. faecium (fold increase in extracellular AK activity)) of 1.1. It also gave a fold induction at 50 µM (P. aeruginosa; read-out: AK-based Prestwick library screening result, P. aeruginosa (fold increase in extracellular AK activity)) of 1.2.
